Measured values as given in the supplement of paper PMC13380429.
± gives the standard deviation of the averaged measurements.

Columns and labels:
Settings in all cases: 72 h
Caco-2 [1] = assay: cell viability relative to DMSO; higher = less toxic
Calu-3 [2] = assay: as above
HepG2 [3] = assay: as above
U2OS [4] = assay: as above
Vero E6 [5] = assay: as above
Caco-2 [6] = assay: relative viability EC50 (midpoint between 100% and the lowest measured viability); higher = less toxic
Calu-3 [7] = assay: as above
HepG2 [8] = assay: as above
U2OS [9] = assay: as above
Vero E6 [10] = assay: as above
Caco-2 [11] = assay: drug sensitivity score (DSS) for viability; higher = more toxic; extreme values may be limits of the assay
Calu-3 [12] = assay: as above
HepG2 [13] = assay: as above
U2OS [14] = assay: as above
Vero E6 [15] = assay: as above

SMILES | cell viability (Caco-2 [1]; 1 nM) [%] | cell viability (Caco-2 [1]; 10 nM) [%] | cell viability (Caco-2 [1]; 100 nM) [%] | cell viability (Caco-2 [1]; 1000 nM) [%] | cell viability (Caco-2 [1]; 10000 nM) [%] | cell viability (Calu-3 [2]; 1 nM) [%] | cell viability (Calu-3 [2]; 10 nM) [%] | cell viability (Calu-3 [2]; 100 nM) [%] | cell viability (Calu-3 [2]; 1000 nM) [%] | cell viability (Calu-3 [2]; 10000 nM) [%] | cell viability (HepG2 [3]; 1 nM) [%] | cell viability (HepG2 [3]; 10 nM) [%] | cell viability (HepG2 [3]; 100 nM) [%] | cell viability (HepG2 [3]; 1000 nM) [%] | cell viability (HepG2 [3]; 10000 nM) [%] | cell viability (U2OS [4]; 1 nM) [%] | cell viability (U2OS [4]; 10 nM) [%] | cell viability (U2OS [4]; 100 nM) [%] | cell viability (U2OS [4]; 1000 nM) [%] | cell viability (U2OS [4]; 10000 nM) [%] | cell viability (Vero E6 [5]; 1 nM) [%] | cell viability (Vero E6 [5]; 10 nM) [%] | cell viability (Vero E6 [5]; 100 nM) [%] | cell viability (Vero E6 [5]; 1000 nM) [%] | cell viability (Vero E6 [5]; 10000 nM) [%] | relative viability EC50 (Caco-2 [6]) [µM] | relative viability EC50 (Calu-3 [7]) [µM] | relative viability EC50 (HepG2 [8]) [µM] | relative viability EC50 (U2OS [9]) [µM] | relative viability EC50 (Vero E6 [10]) [µM] | drug sensitivity score (Caco-2 [11]) | drug sensitivity score (Calu-3 [12]) | drug sensitivity score (HepG2 [13]) | drug sensitivity score (U2OS [14]) | drug sensitivity score (Vero E6 [15])
CCCN1CCO[C@@H]2c3cc(O)ccc3OC[C@H]21 | 101 | 116 | 97.8 | 109 | 102 | 102 | 110 | 95 | 105 | 90.6 | 106 | 104 | 100 | 92 | 105 | 102 | 106 | 97.1 | 102 | 99.7 | 99.7 | 101 | 102 | 101 | 95.7 | > 10 | > 10 | > 10 | > 10 | > 10 | 0 | 0 | 0 | 0 | 0
N=C(N)S/C=C\C(=O)O [ZAPA] | 91.1 | 96 | 91.3 | 104 | 106 | 83 | 103 | 101 | 103 | 95.5 | 96 | 95.5 | 104 | 89.3 | 102 | 92.8 | 97.7 | 95.6 | 100 | 101 | 98.3 | 97.1 | 94.8 | 95 | 106 | > 10 | > 10 | > 10 | > 10 | > 10 | 0 | 0 | 0 | 0 | 0
CCc1cnn2c(NCc3ccc[n+]([O-])c3)cc(N3CCCC[C@H]3CCO)nc12 [dinaciclib] | 100 | 77.9 | 19.9 | 25.1 | 30.8 | 103 | 83.2 | 39.9 | 39.3 | 39.6 | 99.9 | 55.6 | 5.7 | 6.4 | 6.4 | 99.3 | 56 | 3.6 | 4 | 5.4 | 101 | 100 | 14.8 | 7 | 4.5 | 0.0147 | 0.0147 | 0.0105 | 0.0107 | 0.044 | 28.2 | 21.6 | 34.5 | 35.2 | 27.5
CC1(C)S[C@@H]2[C@H](NC(=O)[C@H](NC(=O)N3CCNC3=O)c3ccccc3)C(=O)N2[C@H]1C(=O)O [azlocillin] | 105 | 93 | 91.3 | 98.8 | 98.1 | 97.1 | 100 | 93 | 98.7 | 105 | 99.1 | 88.5 | 99.3 | 93.9 | 88 | 96.6 | 100 | 93.6 | 95 | 98.6 | 95.7 | 96.8 | 96.9 | 94.2 | 98 | > 10 | > 10 | > 10 | > 10 | > 10 | 0 | 0 | 0 | 0 | 0
CC(C)NCC(O)COc1cccc2ccccc12 (stereo not drawn) [propranolol] | 101 ± 2.7 | 96 ± 3.8 | 101 ± 3 | 95 ± 9.6 | 100 ± 4.5 | 95.3 ± 3.9 | 96.7 ± 2.8 | 99.4 ± 6 | 89.6 ± 5 | 92.9 ± 1.8 | 92.9 ± 6.3 | 101 ± 2.8 | 95.6 ± 7 | 102 ± 6 | 102 ± 1.6 | 96.1 ± 3.6 | 95.2 ± 2.7 | 97.2 ± 7.5 | 95.6 ± 2.3 | 96.5 ± 7.6 | 94.3 ± 3.7 | 98.95 ± 0.49 | 95.3 ± 4 | 95.1 ± 0.71 | 99.3 ± 3.2 | > 10 | > 10 | > 10 | > 10 | > 10 | 0 | 0.467 ± 0.81 | 0 | 0.0333 ± 0.058 | 0
CCNC(=O)/C=C/c1cccc(Br)c1 [cinromide] | 99.1 | 96.4 | 105 | 87.2 | 92.4 | 102 | 101 | 106 | 91.5 | 107 | 105 | 96.5 | 106 | 97.5 | 96.8 | 101 | 96.7 | 99 | 96.3 | 98.5 | 110 | 83.6 | 97.1 | 101 | 95.6 | > 10 | > 10 | > 10 | > 10 | > 10 | 0.7 | 0 | 0 | 0 | 0
COc1ccn2ncc(-c3nc4[nH]nc(NC(=O)c5ccc(F)cc5)c4cc3F)c2c1 [CW-008] | 99.1 | 92.5 | 91.2 | 89.6 | 87.7 | 109 | 107 | 113 | 97.8 | 97.2 | 109 | 102 | 95.2 | 101 | 93.1 | – | – | – | – | – | 93.6 | 98.5 | 99.4 | 97 | 89.1 | > 10 | > 10 | > 10 | – | > 10 | 0.6 | 0 | 0 | – | 0.1
